Tests used:
[1] = test system: Lung Cancer Brain Metastases Cells (MH1002, MH1016, H1915); assay: flow cytometry binding of peptide to lung cancer brain metastases cells; conditions: compared to primary lung cancer cells and non-targeting peptides
Source text: FIGS. 2A to 2C show binding of BRDT (LBM1) peptide applied to Primary Lung Cancer Cells, Non Malignant Brain Cells, Lung Cancer Brain Metastases Cells (MH1002, MH1016, H1915) analyzed through flow cytometry.
FIGS. 4A to 4C show binding of LBM2 peptide applied to Primary Lung Cancer Cells, Non Malignant Brain Cells, Lung Cancer Brain Metastases Cells (MH1002, MH1016, H1915) analyzed through flow cytometry.
FIGS. 6A to 6C show binding AMOT (LBM4) peptide applied to Primary Lung Cancer Cells, Non Malignant Brain Cells, Lung Cancer Brain Metastases Cells (MH1002, MH1016, H1915) analyzed through flow cytometry.
For each peptide, as the concentration of peptide goes up, there was a right shift indicating binding to the brain met cells, with minimal binding to the lung cancer primary cells, showing specificity of binding to the brain mets over the lung cancer.

[2] = test system: Lung Cancer Brain Metastases cells; assay: peptide binding to lung cancer brain metastases cells (FIGS. 3, 5, 7B); conditions: MH1002
[3] = test system: Primary Lung Cancer Cells; assay: peptide binding to primary lung cancer cells (FIGS. 3, 5, 7A)
[4] = test system: non-malignant brain cells; assay: peptide binding to non-malignant brain cells (FIGS. 3, 5, 7A)

| Sequence | flow cytometry shift with peptide applied to lung cancer BM cells [1] | binding to Lung Cancer Brain Metastases cells [2] | binding to primary lung cancer cells [3] | binding to non-malignant brain cells [4] |
| --- | --- | --- | --- | --- |
| TLGLRPVPVATT [LBM2] | right shift | positive binding | no binding | no binding |
| SYPSNALSLHKY [LBM1] | right shift | positive binding | no binding | no binding |
